“And” between values parts separate entries of the source, which are not always exact repeats. Equal values may be shown once.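 Results reflect a 48-hour exposure of cells in 96-well plates to compound at five concentrations. GI50 is the concentration that inhibits growth by half. TGI: concentration producing complete growth inhibition.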
Experiments:
Assay in all cases: NCI anticancer screen, dose series, 48 h
HL-60(TB) leukemia = system: HL-60(TB) leukemia
K-562 leukemia = system: K-562 leukemia
KM12 colon = system: KM12 colon
MDA-MB-435 = system: MDA-MB-435
NCI-H226 lung = system: NCI-H226 lung
OVCAR-3 ovarian = system: OVCAR-3 ovarian
OVCAR-8 ovarian = system: OVCAR-8 ovarian
RPMI-8226 leukemia = system: RPMI-8226 leukemia
SF-268 CNS = system: SF-268 CNS
SF-295 CNS = system: SF-295 CNS

Compound | GI50 (HL-60(TB) leukemia) [µM] | TGI (HL-60(TB) leukemia) | GI50 (K-562 leukemia) [µM] | TGI (K-562 leukemia) [µM] | GI50 (KM12 colon) [µM] | TGI (KM12 colon) [µM] | GI50 (MDA-MB-435) [µM] | TGI (MDA-MB-435) [µM] | GI50 (NCI-H226 lung) [µM] | TGI (NCI-H226 lung) [µM] | GI50 (OVCAR-3 ovarian) [µM] | TGI (OVCAR-3 ovarian) | GI50 (OVCAR-8 ovarian) [µM] | TGI (OVCAR-8 ovarian) [µM] | GI50 (RPMI-8226 leukemia) [µM] | TGI (RPMI-8226 leukemia) [µM] | GI50 (SF-268 CNS) [µM] | TGI (SF-268 CNS) [µM] | GI50 (SF-295 CNS) [µM] | TGI (SF-295 CNS) [µM]
N[C@@H](Cc1c[nH]c2ccccc12)C(=O)NC1CCN(Cc2c[nH]c3ccc(Cl)cc23)CC1 | 7.04 | 24.4 µM | 2.72 | 12.5 | 4.6 | 16.9 | 5.99 | 18.7 | 15.4 | 34.1 | 10.5 | 22.5 µM | 15.1 | 29.6 | 6.23 | 23.3 | 7.74 | 22 | 6.34 | 20.1
C#Cc1cccc(Nc2nc(C)nc3cc(NC(=O)CCl)ccc23)c1 | 2.63 | 7.67 µM | 0.953 | 3.65 | 4.13 | 8.15 | 1.49 | 4.75 | 3.06 | 8.25 | 2.7 | 6.06 µM | 2.07 | 6.12 | 1.12 | 4.75 | 2.62 | 6.82 | 3.39 | 6.86
CC(C)(C)c1cc[n+](C[n+]2ccc(C(C)(C)C)cc2)cc1 |  | > 100 µM |  | > 100 |  | > 100 |  | > 100 |  | > 100 |  | > 100 µM |  | > 100 |  | > 100 |  | > 100 |  | > 100
COc1ccc(NC(=O)c2ccc(C(F)(F)F)nc2Nc2ccc(Cl)cc2C)cc1Cl | 2.4 | 5.37 µM | 2.42 | 10.6 | 6.03 | 28 | 7.99 | 25.9 | 2.99 | 14.4 | 3.15 | 16.2 µM | 7.67 | 24.3 | 2.07 | 4.88 | 5.4 | 21.3 | 2.32 | 12.7
NC(=O)c1ccc(I)c([N+](=O)[O-])c1 | 29.9 | > 95.7 µM | 30.2 | > 79.9 | > 100 | > 100 | > 75.6 | > 100 | > 100 | > 100 | 55 | > 100 µM | > 100 | > 100 | 50.1 | > 100 | > 100 | > 100 | > 92.7 | > 100
COc1ccc2c(c1)C(=O)/C(=C/c1ccc(O)cc1)O2 | 1.35 | 2.95 µM | 2.58 | > 24.8 | 8.78 | 22.8 | 6.73 | 20.5 | 25.7 | 79 | 2.28 | 5.29 µM | 27.2 | > 75 | 1.55 | 3.49 | 14.8 | 41.1 | 23.6 | > 66.9
CC[C@H](C)[C@H](NC(=O)c1ncccn1)C(=O)N(C)[C@H](C[C@@H](OC(C)=O)c1nc(C(=O)N[C@@H](Cc2ccccc2)C[C@H](C)C(=O)OC)cs1)C(C)C | 0.588 | 1.26 µM | 0.935 | > 25 | 1.04 | > 25 | 0.393 | 1.08 | 5.45 | > 25 | 0.796 | > 25 µM | 2.25 | > 25 | 0.793 | 3.98 | 2.21 | > 25 | 2.11 | 16.7
CN1C(c2ccccc2)CC(=NO)CC1c1ccccc1 (stereo unspecified) | 22 | 40.7 µM and 68 µM | 32.6 | > 100 | 49.1 | > 100 | 61 |  |  | > 100 | 24.9 | > 100 µM and 77.3 µM | 54.1 | > 100 | 33 | 55.5 |  | > 100 | 44.5 | > 100
COc1ccc(-c2c(NC(=O)Nc3ccc(Cl)c(C(F)(F)F)c3)cnn2-c2ccc(S(N)(=O)=O)cc2)cc1 | 2.27 | 5.67 µM | 3.13 | 16.9 | 3.04 | 11.6 | 2.77 | 9.6 | 3.23 | 14.6 | 2.4 | 6.53 µM | 3.39 | 13 | 3.14 | 13.5 | 3.34 | 14.7 | 2.72 | 10.9
C=C[C@@H]1CCC/C=C/[C@@H]2C[C@H](O)C[C@H]2[C@H](O)/C=C/C(=O)O1 | 2.23 | > 25.2 µM | 3.18 | > 100 | 0.35 | 1.35 | 0.435 | > 100 | 0.265 | 0.784 | 0.427 | 4.18 µM | 0.44 | > 100 | 0.448 | 3.4 | 0.44 | > 100 | 0.912 | > 100
C/C(COc1ccc2oc(-c3ccccc3)cc(=O)c2c1)=N\O | 74.5 | > 100 µM | 70.7 | > 100 | 2.39 | 39.7 | 0.556 | 2.94 | > 100 | > 100 | 7.39 | 54.2 µM | > 100 | > 100 | 22.3 | 62.3 | 24.3 | > 100 | 12.8 | 33.6
O=C1CC=C2C3CC4N(CCC45c4ccccc4N1C25)C/C3=C\CO (stereo unspecified) |  | > 100 µM |  | > 100 |  | > 100 |  | > 100 |  | > 100 |  | > 100 µM |  | > 100 |  | > 100 |  | > 100 |  | > 100
COC(=O)[C@@H](C)C[C@H](Cc1ccc(F)cc1)NC(=O)c1csc([C@@H](C[C@H](C(C)C)N(C)C(=O)[C@@H](NC(=O)[C@H]2CCCCN2C)C2CC2)OC(C)=O)n1 | 0.054 |  | 0.0605 | > 25 | 0.28 | > 25 | 0.0194 | 0.109 | 1.26 | > 13.9 | 0.0723 | 0.633 µM | 0.537 | > 25 | 0.104 | > 25 | 1.16 | > 25 | 0.585 | > 25
O=c1oc2ccc(F)cc2c(=O)n1-c1ccc(I)cc1F | 0.366 | 1.83 µM | 0.397 | > 100 | 1.92 | 5.38 | 0.419 | 3.94 | 0.472 | 4.5 | 0.37 | 6.36 µM | 0.872 | > 41.9 | 0.239 | 0.745 | 0.435 | 8.25 | 1.86 | 3.68
O=c1cc(-c2ccccc2)oc2c(O)c(O)ccc12 | 11.1 | 55.3 µM | 6.08 | > 100 | 10.3 | > 100 | 13 | > 100 | 21 | > 100 | 2.19 | 6.18 µM | 5.65 | > 100 | 4.03 | 50.9 | 6.4 | > 100 | 7.8 | > 100
COc1cc(OCCCN2CCCC2)ccc1Nc1ncc(Cl)c(Nc2ccccc2P(C)(C)=O)n1 | 1.36 | 6.19 µM | 4.43 | 28.5 | 2.63 | 11 | 1.65 | > 42.6 | 1.59 | 6.45 | 2.75 | 12 µM | 3.65 | 38.8 | 2.68 | 12.2 | 2.49 | 10.6 | 2.7 | 14.2
N#Cc1c(N)c(C(=O)c2ccc3c(c2)OCCO3)n2c1CCCC2 | 2.8 | > 27 µM | 0.638 | > 100 | 1.37 | > 100 | 0.362 | 2.07 | > 100 | > 100 | 2.88 | > 28.3 µM | 4.21 | > 100 | 3.93 | > 100 | 7.46 | > 100 | 2.69 | > 53.4
O=C1NN(C(=O)c2ccccc2)C(c2ccc(Cl)c(Cl)c2)=C/C1=C\c1ccccc1[N+](=O)[O-] | 2.01 | > 6.75 µM | 1.9 | > 6.75 | 2.34 | > 6.75 | > 6.75 | > 6.75 | 1.44 | > 6.75 | 2.4 | > 6.75 µM | 2.63 | > 6.75 | 1.77 | > 6.75 | 3.97 | > 6.75 | 1.44 | 4.16
C[C@]12CC[C@@H]3c4ccc(O)cc4CC[C@H]3[C@@H]1CC(Cc1ccccc1)(Cc1ccccc1)C2=O | 4.75 | 20.9 µM | 16.2 | > 100 | 11.5 | 38 | 20.7 | 57 | 16 | 31.3 | 16 | 38.3 µM | 21.5 | 61.3 | 5.57 | 23.5 | 21.2 | 58.3 | 21.4 | 49.1

Source: PubChem BioAssay (NCI)
